Our source for the IC50 values is patent US10246453B2, “Benzenesulfonamide compounds and their use as therapeutic agents” (Xenon Pharmaceuticals Inc., priority 2016, dated 2019).

Structures can show the parent of a compound that is named as a salt.

One data set deals with NaV1.5 (Homo sapiens (Human), UniProt Q14524). Kind of data set: Sodium Influx Assay (Flux), NaV1.5. The settings on record: read-out: Flux NaV1.5 IC50; Trex HEK293 cells, ANG2 dye; arithmetic mean.
Data set [1] deals with T1, NaV1.6 (Homo sapiens (Human), UniProt Q9UQD0). Kind of data set: Sodium Influx Assay (Flux), NaV1.6. The settings on record: read-out: Flux NaV1.6 IC50; Trex HEK293 cells, ANG2 dye; arithmetic mean.
In another data set the target is NaV1.1 (Homo sapiens (Human), UniProt P35498). Put plainly: Sodium Influx Assay (Flux), NaV1.1. The format is cell-based. Particulars: Trex HEK293 cells, ANG2 dye; arithmetic mean.
The target of data set [2] is T1, NaV1.6. Put plainly: Electrophysiological Assay (EP), patch voltage clamp, NaV1.6. The format is cell-based. Particulars: HEK-293 cells, whole-cell patch clamp, inactivated state; arithmetic mean. An excerpt:
Patch voltage clamp electrophysiology allows for the direct measurement and quantification of block of voltage-gated sodium channels (Nay's), and allows the determination of the time-and voltage-dependence of block which has been interpreted as differential binding to the resting, open, and inactivated states of the sodium channel (Hille, B., Journal of General Physiology (1977), 69: 497-515).
NaV1.1, NaV1.5 and NaV1.6 cDNAs (NM_001165964 (SCN1A), NM_000335 (SCN5A) and NM_014191 (SCN8A), respectively) were stably expressed in HEK-293 cells.
Sodium currents were measured using the patch clamp technique in the whole-cell configuration using either a PatchXpress automated voltage clamp or manually using an Axopatch 200B (Axon Instruments) or Model 2400 (A-M systems) amplifier.
The manual voltage clamp protocol was as follows: Borosilicate glass micropipettes were fire-polished to a tip diameter yielding a resistance of 2-4 Mohms in the working solutions. […] In some studies, the external sodium was reduced by equimolar replacement with choline. Osmolarity in the CsF internal and NaCl external solutions was adjusted to 300 mOsm/kg and 310 mOsm/kg with glucose, respectively. All recordings were performed at ambient temperature in a bath chamber with a volume of 150 μL. Control sodium currents were measured in 0.5% DMSO. Controls and representative compounds of the invention were applied to the recording chamber through a 4-pinch or 8-pinch valve bath perfusion system manufactured by ALA Scientific Instruments.
Currents were recorded at 40 kHz sampling frequency, filtered at […], and stored using a Digidata-1322A analogue/digital interface with the pClamp software (Axon Instruments). Series resistance compensation was applied (60-80%). […] All statistics in this study are given as mean±SD.
The membrane potential was maintained at a voltage where inactivation of the channel is complete. The voltage is then stepped back to a very negative (Vhold=−150 mV) voltage for 20 ms and then a test pulse is applied to quantify the compound block. The 20 ms brief repolarization was long enough for compound-free channels to completely recover from fast inactivation, but the compound-bound channels recovered more slowly such that negligible recovery could occur during this interval. The percent decrease in sodium current following wash-on of compound was taken as the percent block of sodium channels.
For orientation: The patch-clamp technique gives a direct electrical read-out from membranes.

T1 sequence (Q9UQD0 whole entry): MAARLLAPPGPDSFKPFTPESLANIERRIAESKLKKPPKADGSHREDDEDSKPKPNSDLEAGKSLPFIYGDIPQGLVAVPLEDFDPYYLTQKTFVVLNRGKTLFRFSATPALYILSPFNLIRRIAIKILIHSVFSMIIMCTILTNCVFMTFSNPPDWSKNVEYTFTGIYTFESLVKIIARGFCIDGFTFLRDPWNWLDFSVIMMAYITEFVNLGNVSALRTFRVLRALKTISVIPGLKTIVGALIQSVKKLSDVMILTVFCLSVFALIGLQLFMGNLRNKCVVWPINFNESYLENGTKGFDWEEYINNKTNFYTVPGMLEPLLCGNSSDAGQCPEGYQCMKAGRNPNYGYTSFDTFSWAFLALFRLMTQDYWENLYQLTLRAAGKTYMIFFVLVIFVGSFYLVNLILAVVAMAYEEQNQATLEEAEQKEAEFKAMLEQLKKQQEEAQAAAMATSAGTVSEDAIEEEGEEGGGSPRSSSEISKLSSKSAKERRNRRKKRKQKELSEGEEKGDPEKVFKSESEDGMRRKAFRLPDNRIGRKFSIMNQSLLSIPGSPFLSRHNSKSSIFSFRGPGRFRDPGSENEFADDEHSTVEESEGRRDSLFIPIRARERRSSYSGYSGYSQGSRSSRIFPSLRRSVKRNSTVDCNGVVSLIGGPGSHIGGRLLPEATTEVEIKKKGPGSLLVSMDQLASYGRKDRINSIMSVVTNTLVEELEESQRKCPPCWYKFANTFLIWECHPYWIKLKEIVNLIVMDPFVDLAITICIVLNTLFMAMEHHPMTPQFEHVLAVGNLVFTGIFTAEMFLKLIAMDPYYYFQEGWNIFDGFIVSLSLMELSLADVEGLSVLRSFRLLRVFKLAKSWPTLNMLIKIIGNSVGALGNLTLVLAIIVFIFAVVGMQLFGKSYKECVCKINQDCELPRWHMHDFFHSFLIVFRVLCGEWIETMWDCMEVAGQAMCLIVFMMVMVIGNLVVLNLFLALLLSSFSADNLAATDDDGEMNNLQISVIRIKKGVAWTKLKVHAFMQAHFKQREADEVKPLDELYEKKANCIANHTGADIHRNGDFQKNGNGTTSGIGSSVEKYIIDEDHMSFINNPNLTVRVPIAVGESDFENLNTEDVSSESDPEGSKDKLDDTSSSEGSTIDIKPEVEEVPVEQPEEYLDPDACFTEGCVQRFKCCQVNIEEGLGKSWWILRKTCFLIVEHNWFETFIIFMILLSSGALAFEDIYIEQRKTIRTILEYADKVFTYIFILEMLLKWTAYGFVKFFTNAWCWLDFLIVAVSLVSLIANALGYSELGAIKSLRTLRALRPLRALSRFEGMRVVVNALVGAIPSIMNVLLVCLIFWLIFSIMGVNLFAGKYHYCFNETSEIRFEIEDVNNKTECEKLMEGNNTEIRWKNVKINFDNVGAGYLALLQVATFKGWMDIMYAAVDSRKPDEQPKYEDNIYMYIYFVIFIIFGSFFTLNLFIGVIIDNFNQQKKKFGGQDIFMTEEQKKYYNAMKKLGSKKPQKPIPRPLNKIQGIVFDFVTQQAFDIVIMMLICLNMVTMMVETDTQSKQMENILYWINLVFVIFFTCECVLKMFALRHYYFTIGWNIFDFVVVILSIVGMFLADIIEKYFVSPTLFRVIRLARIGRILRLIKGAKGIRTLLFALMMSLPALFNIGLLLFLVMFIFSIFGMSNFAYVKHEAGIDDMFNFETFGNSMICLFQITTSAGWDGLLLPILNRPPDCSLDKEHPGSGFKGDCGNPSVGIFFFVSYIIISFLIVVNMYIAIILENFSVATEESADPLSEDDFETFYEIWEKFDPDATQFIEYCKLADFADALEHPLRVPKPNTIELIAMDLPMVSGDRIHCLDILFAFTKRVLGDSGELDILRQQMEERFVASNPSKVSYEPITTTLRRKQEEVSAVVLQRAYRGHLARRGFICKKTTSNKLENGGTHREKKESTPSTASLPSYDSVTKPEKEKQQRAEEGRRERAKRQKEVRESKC
Sequence of NaV1.5 (Q14524 other isoform, or with tags, fused parts or gaps): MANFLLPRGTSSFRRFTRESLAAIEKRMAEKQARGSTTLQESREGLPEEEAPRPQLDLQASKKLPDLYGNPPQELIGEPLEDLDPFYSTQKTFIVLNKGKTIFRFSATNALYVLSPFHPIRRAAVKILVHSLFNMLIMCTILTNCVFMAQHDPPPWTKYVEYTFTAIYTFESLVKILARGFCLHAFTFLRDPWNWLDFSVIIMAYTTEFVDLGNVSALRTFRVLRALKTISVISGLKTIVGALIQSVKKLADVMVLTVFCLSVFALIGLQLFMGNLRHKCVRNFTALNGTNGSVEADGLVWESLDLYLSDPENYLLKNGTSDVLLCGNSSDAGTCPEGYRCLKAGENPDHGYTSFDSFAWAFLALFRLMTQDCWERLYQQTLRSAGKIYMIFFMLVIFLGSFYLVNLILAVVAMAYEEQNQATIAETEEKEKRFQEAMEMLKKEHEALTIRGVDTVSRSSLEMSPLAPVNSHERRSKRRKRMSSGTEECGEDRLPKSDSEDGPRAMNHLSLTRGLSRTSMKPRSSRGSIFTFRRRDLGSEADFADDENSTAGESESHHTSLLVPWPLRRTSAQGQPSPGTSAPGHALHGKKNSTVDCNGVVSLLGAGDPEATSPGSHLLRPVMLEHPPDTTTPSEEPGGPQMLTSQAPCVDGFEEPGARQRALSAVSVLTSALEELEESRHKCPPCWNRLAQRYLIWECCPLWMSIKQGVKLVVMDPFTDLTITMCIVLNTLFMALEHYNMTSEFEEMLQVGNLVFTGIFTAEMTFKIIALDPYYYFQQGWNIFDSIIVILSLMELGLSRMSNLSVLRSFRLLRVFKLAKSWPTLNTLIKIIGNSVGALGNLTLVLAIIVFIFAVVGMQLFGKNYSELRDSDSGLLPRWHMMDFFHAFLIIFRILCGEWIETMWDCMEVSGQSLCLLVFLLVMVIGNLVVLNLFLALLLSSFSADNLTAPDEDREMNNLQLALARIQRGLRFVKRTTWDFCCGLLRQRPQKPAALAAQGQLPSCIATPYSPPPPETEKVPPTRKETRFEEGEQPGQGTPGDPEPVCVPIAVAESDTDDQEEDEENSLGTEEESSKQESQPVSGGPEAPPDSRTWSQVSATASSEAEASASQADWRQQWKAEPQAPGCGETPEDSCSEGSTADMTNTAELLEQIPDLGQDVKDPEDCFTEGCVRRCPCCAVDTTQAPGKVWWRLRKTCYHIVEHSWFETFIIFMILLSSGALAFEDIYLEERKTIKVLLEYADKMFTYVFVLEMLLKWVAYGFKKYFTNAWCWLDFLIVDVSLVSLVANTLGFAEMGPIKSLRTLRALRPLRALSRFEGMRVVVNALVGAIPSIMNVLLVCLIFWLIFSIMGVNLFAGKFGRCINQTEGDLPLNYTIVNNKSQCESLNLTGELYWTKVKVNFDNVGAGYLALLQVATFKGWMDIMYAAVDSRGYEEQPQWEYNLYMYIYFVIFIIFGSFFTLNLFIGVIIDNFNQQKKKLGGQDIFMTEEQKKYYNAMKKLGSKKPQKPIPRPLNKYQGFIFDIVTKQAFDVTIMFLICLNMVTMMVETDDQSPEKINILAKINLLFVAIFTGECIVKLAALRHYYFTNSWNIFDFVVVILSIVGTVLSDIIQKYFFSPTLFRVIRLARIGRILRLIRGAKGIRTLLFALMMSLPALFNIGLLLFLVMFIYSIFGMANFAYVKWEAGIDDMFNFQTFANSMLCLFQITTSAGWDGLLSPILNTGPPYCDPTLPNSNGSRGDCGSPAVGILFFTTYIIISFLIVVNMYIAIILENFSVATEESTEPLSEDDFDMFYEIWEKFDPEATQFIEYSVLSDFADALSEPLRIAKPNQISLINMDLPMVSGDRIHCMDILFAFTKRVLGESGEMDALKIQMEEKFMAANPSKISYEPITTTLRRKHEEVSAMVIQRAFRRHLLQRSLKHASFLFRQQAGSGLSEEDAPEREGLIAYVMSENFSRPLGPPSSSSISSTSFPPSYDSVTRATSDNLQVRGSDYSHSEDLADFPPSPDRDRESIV

As a reminder, the IC50 is the concentration at which inhibition is half-maximal. Take `CC1(C)CN(Cc2ccccc2)CCC1Oc1ccc(S(=O)(=O)Nc2ncns2)cc1Cl` (centres unmarked) [Example 2, 4-((1-benzyl-3,3-dimethylpiperidin-4-yl)oxy)-3-chloro-N-(1,2,4-thiadiazol-5-yl)benzenesulfonamide 2,2,2-trifluoroacetate]: the half-maximal inhibitory concentration (IC50) on NaV1.5 was 6320 nM; at NaV1.6 [1] it was 1360 nM; on NaV1.1, 22500 nM; against NaV1.6 [2] it was 381 nM.
As for `O=S(=O)(Nc1ncns1)c1ccc(NC2CCN(Cc3ccccc3)C2)c(Cl)c1` (centres unmarked) [Example 26, 4-((1-benzylpyrrolidin-3-yl)amino)-3-chloro-N-(1,2,4-thiadiazol-5-yl)benzenesulfonamide trifluoroacetate], the IC50 was more than 30000 nM on NaV1.5, 235 nM at NaV1.6 [1], 15000 nM against NaV1.1 and 164 nM on NaV1.6 [2].
Take `CN(c1ccc(S(=O)(=O)Nc2ncns2)cc1Cl)[C@H]1CCN(Cc2cccc(C(F)F)c2)C1` [Example 31, (S)-3-chloro-4-((1-(3-(difluoromethyl)benzyl)pyrrolidin-3-yl)(methyl)amino)-N-(1,2,4-thiadiazol-5-yl)benzenesulfonamide]: the IC50 is more than 30000 nM at NaV1.5, 13 nM at NaV1.6 [1], 27700 nM against NaV1.1 and 29 nM against NaV1.6 [2].
For `O=S(=O)(Nc1ncns1)c1ccc(NC2CCN(Cc3ccccc3)CC2)c(Cl)c1` [Example 46, 4-((1-benzylpiperidin-4-yl)amino)-3-chloro-N-(1,2,4-thiadiazol-5-yl)benzenesulfonamide 2,2,2-trifluoroacetate] the same measures were more than 30000 nM, 731 nM, 4130 nM and 278 nM.
For `O=S(=O)(Nc1nccs1)c1cc(Cl)c(OC2CCN(Cc3ccccc3)CC2)cc1F` [Example 47, 4-((1-benzylpiperidin-4-yl)oxy)-5-chloro-2-fluoro-N-(thiazol-2-yl)benzenesulfonamide 2,2,2-trifluoroacetate] the same measures were 15900 nM, 943 nM, 12300 nM and 479 nM.
On to `C[C@H](c1ccccc1)N1CCC(Oc2ccc(S(=O)(=O)Nc3nccs3)cc2Cl)CC1` [Example 55, (R)-3-chloro-4-((1-(1-phenylethyl)piperidin-4-yl)oxy)-N-(thiazol-2-yl)benzenesulfonamide 2,2,2-trifluoroacetate], for which the half-inhibitory concentration (IC50) on NaV1.6 [1] was found to be 187 nM; at NaV1.6 [2], 32 nM.
For `O=S(=O)(Nc1ncns1)c1ccc(N[C@@H]2CCN(Cc3ccccc3)C2)c(Cl)c1` [Example 66, (R)-4-((1-benzylpyrrolidin-3-yl)amino)-3-chloro-N-(1,2,4-thiadiazol-5-yl)benzenesulfonamide 2,2,2-trifluoroacetate], the IC50 is more than 30000 nM at NaV1.5, 148 nM on NaV1.6 [1], 5510 nM against NaV1.1 and 144 nM at NaV1.6 [2].
For the compound `O=S(=O)(Nc1ncns1)c1ccc(N[C@H]2CCN(Cc3ccccc3)C2)c(Cl)c1` [Example 67, (S)-4-((1-benzylpyrrolidin-3-yl)amino)-3-chloro-N-(1,2,4-thiadiazol-5-yl)benzenesulfonamide 2,2,2-trifluoroacetate], the IC50 on NaV1.5 was more than 30000 nM; at NaV1.6 [1] it was 310 nM; against NaV1.1, more than 30000 nM; at NaV1.6 [2], 453 nM.
Regarding `O=S(=O)(Nc1cccc(F)n1)c1ccc(OC2CCN(Cc3ccccc3)CC2)c(Cl)c1` [Example 77, 4-((1-benzylpiperidin-4-yl)oxy)-3-chloro-N-(6-fluoropyridin-2-yl)benzenesulfonamide 2,2,2-trifluoroacetate], the IC50 was 26600 nM at NaV1.5, 7610 nM on NaV1.6 [1], 19000 nM at NaV1.1 and 5570 nM against NaV1.6 [2].
With `O=S(=O)(Nc1nccs1)c1ccc(OC2CCN(Cc3ccccc3)CC2)c(Cl)c1` [Example 95, 4-(1-benzylpiperidin-4-yloxy)-3-chloro-N-(thiazol-2-yl)benzenesulfonamide 2,2,2-trifluoroacetate], the half-inhibitory concentration (IC50) at NaV1.5 worked out at 20900 nM; at NaV1.6 [1] it was 416 nM; against NaV1.6 [2], 177 nM.
Regarding `O=S(=O)(Nc1ncns1)c1ccc(O[C@H]2CCN(Cc3ccccc3)C2)c(Cl)c1` [Example 97, (S)-4-(1-benzylpyrrolidin-3-yloxy)-3-chloro-N-(1,2,4-thiadiazol-5-yl)benzenesulfonamide 2,2,2-trifluoroacetate], the half-inhibitory concentration (IC50) at NaV1.5 is more than 30000 nM; on NaV1.6 [1], 1450 nM; on NaV1.1, more than 30000 nM; against NaV1.6 [2], 2940 nM.
With `Cc1cc(C)cc(CN2CC[C@H](Oc3ccc(S(=O)(=O)Nc4ncns4)cc3Cl)C2)c1` [Example 99, (S)-3-chloro-4-(1-(3,5-dimethylbenzyl)pyrrolidin-3-yloxy)-N-(1,2,4-thiadiazol-5-yl)benzenesulfonamide 2,2,2-trifluoroacetate], the 50% inhibitory concentration (IC50) on NaV1.5 was more than 30000 nM; at NaV1.6 [1], 1410 nM; against NaV1.1, more than 30000 nM; on NaV1.6 [2] it was 4440 nM.
Consider `Cc1cc(S(=O)(=O)Nc2cscn2)c(F)cc1N(C)[C@H]1CCN(Cc2ccccc2)C1` [Example 101, (S)-4-((1-benzylpyrrolidin-3-yl)(methyl)amino)-2-fluoro-5-methyl-N-(thiazol-4-yl)benzenesulfonamide formate], for which the figures for the half-inhibitory concentration (IC50) on NaV1.6 [1] and against NaV1.6 [2] were 272 nM and 54 nM, respectively.
Take `Cc1c(O[C@@]2(C)CCN(Cc3ccccc3)C2)cc(F)c(S(=O)(=O)Nc2cscn2)c1F` [Example 158, (S)-4-((1-benzyl-3-methylpyrrolidin-3-yl)oxy)-2,6-difluoro-3-methyl-N-(thiazol-4-yl)benzenesulfonamide formate]: the half-maximal inhibitory concentration (IC50) at NaV1.5 was more than 30000 nM; on NaV1.6 [1], 9 nM; on NaV1.1, 24200 nM; against NaV1.6 [2], 8 nM.
`Cc1cccc(CN2CC[C@H](N(C)c3cc(F)c(S(=O)(=O)Nc4cscn4)c(F)c3Cl)C2)n1` [Example 267, (S)-3-chloro-2,6-difluoro-4-(methyl(1-((6-methylpyridin-2-yl)methyl)pyrrolidin-3-yl)amino)-N-(thiazol-4-yl)benzenesulfonamide]: the IC50 on NaV1.5 is more than 30000 nM; at NaV1.6 [1], 182 nM; at NaV1.1, more than 30000 nM; on NaV1.6 [2], 66 nM.
Consider `Cc1cc(S(=O)(=O)Nc2ccsn2)c(F)cc1N(C)[C@H]1CCN(Cc2ccccc2)C1` [Example 277, (S)-4-((1-benzylpyrrolidin-3-yl)(methyl)amino)-2-fluoro-N-(isothiazol-3-yl)-5-methylbenzenesulfonamide 2,2,2-trifluoroacetate], for which the IC50 on NaV1.5 is more than 30000 nM; on NaV1.6 [1], 153 nM; against NaV1.1 it was 24900 nM; against NaV1.6 [2] it was 27 nM.
For the compound `Cc1c(OC2CCN([C@H](C)c3ccccc3)CC2)cc(F)c(S(=O)(=O)Nc2cscn2)c1F` [Example 282, (R)-2,6-difluoro-3-methyl-4-((1-(1-phenylethyl)piperidin-4-yl)oxy)-N-(thiazol-4-yl)benzenesulfonamide 2,2,2-trifluoroacetate], the IC50 at NaV1.5 came to 23900 nM; on NaV1.6 [1], 5 nM; against NaV1.1 it was 17300 nM; on NaV1.6 [2], 5 nM.
Consider `C[C@H](c1ccccc1)N1CCC(Oc2cc(F)c(S(=O)(=O)Nc3cscn3)c(F)c2)CC1` [Example 291, (R)-2,6-difluoro-4-((1-(1-phenylethyl)piperidin-4-yl)oxy)-N-(thiazol-4-yl)benzenesulfonamide 2,2,2-trifluoroacetate], for which the IC50 is more than 30000 nM on NaV1.5, 578 nM at NaV1.6 [1], more than 30000 nM at NaV1.1 and 447 nM against NaV1.6 [2].
`Cc1c(N(C)[C@H]2CCN(Cc3ccccc3)C2)cc(F)c(S(=O)(=O)Nc2ncns2)c1F` [Example 295, (S)-4-((1-benzylpyrrolidin-3-yl)(methyl)amino)-2,6-difluoro-3-methyl-N-(1,2,4-thiadiazol-5-yl)benzenesulfonamide]: the IC50 stood at 25900 nM on NaV1.5, 9 nM at NaV1.6 [1], 17100 nM against NaV1.1 and 1 nM against NaV1.6 [2].
